Here are results for one molecule from US6589992B2, “Inhibiting collagen-induced platelet aggregation” (Parker Hughes Institute, priority 1999, dated 2003).

The assay concerns ICR mice. The assay can be described thus: Thromboplastin-induced fatal thromboembolism in mice. It is filed as in vivo. Conditions: N=10. As for the experimental part:
The mice were challenged with 25 mg/kg thromboplastin (Sigma, St. Louis, Mo.) via a bolus i.v. injection in to the tail vein as previously described (Sato et al., 1998). At the time of thromboembolism-related death, after the thromboplastin injection or elective sacrifice at 48 hours using ketamine/xylazine, all mice were perfused with PBS followed by 4% phosphate buffered formalin. PBS and formalin were pumped through the left ventricle of the heart and allowed to exit through a 3 mm incision through the anterior wall of the right ventricle.

Consider `CC(=O)CC(c1ccccc1)c1c(O)c2ccccc2oc1=O` (centres unmarked) [warfarin, reference compound], for which the “probability of event-free survival after thromboplastin challenge” value (warfarin 3 mg/kg i.p. 18 hours prior) is given as 10±9%. Further, under “warfarin 3 mg/kg”, the median survival time is 5.3 min.
